Source: patent US10508109B2 (priority 2015, dated 2019)
Counter-ions that a name gives are not always drawn. Like-named read-outs stand apart in the source and are kept apart here.

How the values were obtained:
[1] = target: SUV39H2 (Homo sapiens (Human), UniProt Q9H5I1); assay: biochemical; format: biochemical; conditions: 3H-SAM 100 nM, H3 Histone Peptide 350 nM, room temperature 3 hours
Experimental: Assay buffer (4 μL) was added into all the wells, including test compound and control wells (except for Sinefungin control wells), using the Multidrop Combi. The plate was centrifuged at 1000 rpm for 1 min. […] SUV39H2 (8 μL, final conc: optimized for each lot of the enzyme based on specific activity) was added by using the Multidrop Combi. The assay plate was centrifuged at 1000 rpm for 1 min. Assay buffer was used as background control, and incubated at room temperature for 3 hours. The reaction was stopped with 20 μL of 2.5 mg/mL Streptavidin SPA beads (final conc. 50 μg/well) in buffer using the Multidrop Combi and centrifuged for 1 min. The plate was loaded into the Trilux-Microbeta counter and a delayed read of 10 hours was made. The radioactive signal was measured at 1 min/well. Sinefungin and the internal standard compound were used as tool compounds to determine assay performance.
• The following calculations were made using the obtained CPM raw data: Software used: XLFit from IDBS.
For each test plate the following results were calculated: • Average, Standard Deviation, and % CV of Background Controls • Average, Standard Deviation, and % CV of Positive Controls • Z′ value of the plate • IC50 values of standard and test compounds (in nM) • R^2 value of fitted concentration response curve • Hill slope coefficient of fitted concentration response curve • Signal to Noise Ratio

[2] = test system: A549; assay: Cell-based assay, anti-proliferative activity (Cell Counting Kit-8, 72 hours); conditions: Homo sapiens, read-out: A549 IC50
Outline: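 Cells were seeded in 96-well plates and exposed to candidate inhibitors. Cellular growth was then determined with the colorimetric kit, and IC50 values were calculated from the growth data.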

[3] = A549 cells, 72 hours exposure, Cell Counting Kit-8

Sequence of SUV39H2 (Q9H5I1 whole entry): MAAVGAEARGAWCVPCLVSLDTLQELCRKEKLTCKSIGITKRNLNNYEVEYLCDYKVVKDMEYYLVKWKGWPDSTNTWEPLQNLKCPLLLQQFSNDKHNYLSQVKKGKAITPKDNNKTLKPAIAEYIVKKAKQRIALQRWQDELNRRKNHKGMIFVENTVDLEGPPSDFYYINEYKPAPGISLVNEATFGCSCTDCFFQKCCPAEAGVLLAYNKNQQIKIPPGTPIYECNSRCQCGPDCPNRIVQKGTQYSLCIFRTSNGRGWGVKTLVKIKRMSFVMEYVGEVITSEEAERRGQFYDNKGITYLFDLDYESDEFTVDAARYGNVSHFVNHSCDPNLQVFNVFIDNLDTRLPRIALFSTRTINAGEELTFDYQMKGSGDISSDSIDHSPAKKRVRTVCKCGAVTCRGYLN

| Structure (SMILES) | IC50 [1] [nM] | IC50 [2, 3] [nM] | IC50 ([2]; A549, 72 h) [nM] |
| --- | --- | --- | --- |
| COc1cc(OC)c(-c2cn3ccc(N4CCN(c5cncnc5)CC4)cc3n2)cc1Cl [Example 317, 2-(5-chloro-2,4-dimethoxyphenyl)-7-(4-(pyrimidin-5-yl)piperazin-1-yl)imidazo[1,2-a]pyridine] | 11.6 | 650 |  |
| COc1cc(OC)c(-c2cn3ccc(N[C@H]4CC[C@H](Nc5ncccn5)CC4)cc3n2)cc1Cl [Example 318, (1r,4r)-N^1-(2-(5-chloro-2,4-dimethoxyphenyl)imidazo[1,2-a]pyridin-7-yl)-N^4-(pyrimidin-2-yl)cyclohexane-1,4-diamine hydrochloride] | 9.73 | 180 |  |
| COc1cc(OC)c(-c2cn3ccc(N4CCN(C(=O)c5ccncc5)CC4)cc3n2)cc1Cl [Example 319, (4-(2-(5-chloro-2,4-dimethoxyphenyl)imidazo[1,2-a]pyridin-7-yl)piperazin-1-yl)(pyridin-4-yl)methanone] | 16.4 | 4600 |  |
| COc1cc(OC)c(-c2cn3ccc(NC4CCC(NCc5ccc(F)cc5)CC4)cc3n2)cc1Cl (stereo not drawn) [Example 320, (1r,4r)-N^1-(2-(5-chloro-2,4-dimethoxyphenyl)imidazo[1,2-a]pyridin-7-yl)-N^4-(4-fluorobenzyl)cyclohexane-1,4-diamine] | 95 | 430 |  |
| COc1ccc(N2CCN(c3ccn4cc(-c5cc(Cl)c(OC)cc5OC)nc4c3)CC2)nc1 [Example 321, 2-(5-chloro-2,4-dimethoxyphenyl)-7-(4-(5-methoxypyridin-2-yl)piperazin-1-yl)imidazo[1,2-a]pyridine] | 87.4 | 870 |  |
| COc1cc(OC)c(-c2cn3ccc(N4CCN(c5ccncc5F)CC4)cc3n2)cc1Cl [Example 322, 2-(5-chloro-2,4-dimethoxyphenyl)-7-(4-(3-fluoropyridin-4-yl)piperazin-1-yl)imidazo[1,2-a]pyridine] | 57.5 | 560 |  |
| COc1cc(OC)c(-c2cn3ccc(N4CCN(c5ccc(N)nc5)CC4)cc3n2)cc1Cl [Example 323, 5-(4-(2-(5-chloro-2,4-dimethoxyphenyl)imidazo[1,2-a]pyridin-7-yl)piperazin-1-yl)pyridin-2-amine] | 30.4 | 930 |  |
| COc1cc(OC)c(-c2cn3ccc(NC4CCN(Cc5csc([N+](=O)[O-])c5)CC4)cc3n2)cc1Cl [Example 324, 2-(5-chloro-2,4-dimethoxyphenyl)-N-(1-((5-nitrothiophen-3-yl)methyl)piperidin-4-yl)imidazo[1,2-a]pyridin-7-amine] | 33.9 | 590 |  |
| COc1cc(OC)c(-c2cn3ccc(N[C@H]4CC[C@@H](NCc5ccccc5)CC4)cc3n2)cc1Cl [Example 325, cis-N^1-benzyl-N^4-(2-(5-chloro-2,4-dimethoxyphenyl)imidazo[1,2-a]pyridin-7-yl)cyclohexane-1,4-diamine] | 23.4 | 800 |  |
| COc1cc(OC)c(-c2cn3ccc(N[C@H]4CC[C@@H](NCc5ccc(F)cc5)CC4)cc3n2)cc1Cl [Example 326, cis-N^1-(2-(5-chloro-2,4-dimethoxyphenyl)imidazo[1,2-a]pyridin-7-yl)-N^4-(4-fluorobenzyl)cyclohexane-1,4-diamine] | 20.3 | 660 |  |
| COc1cc(OC)c(-c2cn3ccc(N4CCN(c5cc(C)ccn5)CC4)cc3n2)cc1Cl [Example 327, 2-(5-chloro-2,4-dimethoxyphenyl)-7-(4-(4-methylpyridin-2-yl)piperazin-1-yl)imidazo[1,2-a]pyridine] | 46.7 |  | 870 |
| COc1cc(OC)c(-c2cn3ccc(N[C@H]4CC[C@H](NCc5ccc(C)cc5)CC4)cc3n2)cc1Cl [Example 328, (1r,4r)-N^1-(2-(5-chloro-2,4-dimethoxyphenyl)imidazo[1,2-a]pyridin-7-yl)-N^4-(4-methylbenzyl)cyclohexane-1,4-diamine (2,2,2-trifluoroacetate)] | 60.5 | 360 |  |
| COc1cc(OC)c(-c2cn3ccc(N[C@H]4CC[C@@H](NCc5ccc(C)cc5)CC4)cc3n2)cc1Cl [Example 329, cis-N^1-(2-(5-chloro-2,4-dimethoxyphenyl)imidazo[1,2-a]pyridin-7-yl)-N^4-(4-methylbenzyl)cyclohexane-1,4-diamine] | 38.8 | 780 |  |
| COc1cc(OC)c(-c2cn3ccc(N4CCN(c5ccnc(C#N)c5)CC4)cc3n2)cc1Cl [Example 330, 4-(4-(2-(5-chloro-2,4-dimethoxyphenyl)imidazo[1,2-a]pyridin-7-yl)piperazin-1-yl)picolinonitrile] | 98 | 560 |  |
| COc1cc(OC)c(-c2cn3ccc(N4CCN(c5ccnc(NC6CC6)n5)CC4)cc3n2)cc1Cl [Example 331, 4-(4-(2-(5-chloro-2,4-dimethoxyphenyl)imidazo[1,2-a]pyridin-7-yl)piperazin-1-yl)-N-cyclopropylpyrimidin-2-amine] | 56.9 | 820 |  |
| COc1cc(OC)c(-c2cn3ccc(N4CCN(c5ccnc(N6CCC(O)CC6)n5)CC4)cc3n2)cc1Cl [Example 332, 1-(4-(4-(2-(5-chloro-2,4-dimethoxyphenyl)imidazo[1,2-a]pyridin-7-yl)piperazin-1-yl)pyrimidin-2-yl)piperidin-4-ol] | 21.6 |  | 910 |
| COc1cc(OC)c(-c2cn3ccc(N4CCN(c5cnc(N6CCCC6)nc5)CC4)cc3n2)cc1Cl [Example 333, 2-(5-chloro-2,4-dimethoxyphenyl)-7-(4-(2-(pyrrolidin-1-yl)pyrimidin-5-yl)piperazin-1-yl)imidazo[1,2-a]pyridine] | 62 | 720 |  |
| COc1cc(OC)c(-c2cn3ccc(N4CCN(c5cnc(N6CCOCC6)nc5)CC4)cc3n2)cc1Cl [Example 335, 4-(5-(4-(2-(5-chloro-2,4-dimethoxyphenyl)imidazo[1,2-a]pyridin-7-yl)piperazin-1-yl)pyrimidin-2-yl)morpholine] | 68.5 | 690 |  |
| COc1cc(OC)c(-c2cn3ccc(N4CCN(Cc5ccncc5F)CC4)cc3n2)cc1Cl [Example 336, 2-(5-chloro-2,4-dimethoxyphenyl)-7-(4-((3-fluoropyridin-4-yl)methyl)piperazin-1-yl)imidazo[1,2-a]pyridine] | 16.1 | 970 |  |
| COc1cc(OC)c(-c2cn3ccc(N[C@H]4CC[C@H](Nc5cncnc5)CC4)cc3n2)cc1Cl [Example 337, (1r,4r)-N^1-(2-(5-chloro-2,4-dimethoxyphenyl)imidazo[1,2-a]pyridin-7-yl)-N^4-(pyrimidin-5-yl)cyclohexane-1,4-diamine] | 79.9 | 830 |  |
| COc1cc(OC)c(-c2cn3ccc(N4CCN(c5ccnc(N6CCC(N)CC6)n5)CC4)cc3n2)cc1Cl [Example 338, 1-(4-(4-(2-(5-chloro-2,4-dimethoxyphenyl)imidazo[1,2-a]pyridin-7-yl)piperazin-1-yl)pyrimidin-2-yl)piperidin-4-amine] | 17 | 1200 |  |
| CNc1ncc(N2CCN(c3ccn4cc(-c5cc(Cl)c(OC)cc5OC)nc4c3)CC2)cn1 [Example 340, 5-(4-(2-(5-chloro-2,4-dimethoxyphenyl)imidazo[1,2-a]pyridin-7-yl)piperazin-1-yl)-N-methylpyrimidin-2-amine trifluoroacetate] | 17.1 | 690 |  |
| COc1cc(OC)c(-c2cn3ccc(N4CCN(c5ccnc(N6CCNCC6)n5)CC4)cc3n2)cc1Cl [Example 341, 2-(5-chloro-2,4-dimethoxyphenyl)-7-(4-(2-(piperazin-1-yl)pyrimidin-4-yl)piperazin-1-yl)imidazo[1,2-a]pyridine] | 23.4 |  | 740 |
| COc1cc(OC)c(-c2cn3ccc(NC4CCN(Cc5ccc([N+](=O)[O-])o5)CC4)cc3n2)cc1Cl [Example 343, 2-(5-chloro-2,4-dimethoxyphenyl)-N-(1-((5-nitrofuran-2-yl)methyl)piperidin-4-yl)imidazo[1,2-a]pyridin-7-amine] | 47.9 | 910 |  |
| COc1cc(OC)c(-c2cn3ccc(N4CCN(Cc5ccncc5Br)CC4)cc3n2)cc1Cl [Example 345, 7-(4-((3-bromopyridin-4-yl)methyl)piperazin-1-yl)-2-(5-chloro-2,4-dimethoxyphenyl)imidazo[1,2-a]pyridine] | 35.4 | 850 |  |
| COc1cc(OC)c(-c2cn3ccc(N4CCN(c5ccnc(N6CCC(O)C6)n5)CC4)cc3n2)cc1Cl (stereo not drawn) [Example 346, 1-(4-(4-(2-(5-chloro-2,4-dimethoxyphenyl)imidazo[1,2-a]pyridin-7-yl)piperazin-1-yl)pyrimidin-2-yl)pyrrolidin-3-ol] | 15.3 |  | 590 |
| COc1cc(OC)c(-c2cn3ccc(N[C@H]4CC[C@@H](N(C)Cc5ccccc5C)CC4)cc3n2)cc1Cl [Example 348, cis-N^1-(2-(5-chloro-2,4-dimethoxyphenyl)imidazo[1,2-a]pyridin-7-yl)-N^4-methyl-N^4-(2-methylbenzyl)cyclohexane-1,4-diamine bis(2,2,2-trifluoroacetate)] | 31.2 | 750 |  |
